Laboratory results reported in US20230364057A1, “BACTERIAL DNA GYRASE INHIBITORS AND METHODS OF USE THEREOF” (THE FLORIDA INTERNATIONAL UNIVERSITY BOARD OF TRUSTEES, priority 2022, published 2023).
In brackets after ≈: the same amount, converted by molar mass. Like-named read-outs stand apart in the source and are kept apart here.

Experiments:
E. coli DNA gyrase [1] = biological target: T1, E. coli DNA gyrase (Escherichia coli (strain K12), UniProt P0AES4+P0AES6); conditions: known inhibitors of the LOPAC library; read-out: inhibition IC50 against E. coli DNA gyrase; cited from earlier work
M. abscessus = experiment: MIC against M. abscessus; type: cell-based, Mycobacterium abscessus; conditions: Mycobacteroides abscessus
Mtb DNA gyrase = Mtb DNA gyrase (Mycobacterium tuberculosis (strain ATCC 25618 / H37Rv), UniProt P9WG45+P9WG47); experiment: Mtb DNA gyrase inhibition assay (gel-based); type: biochemical
Protocol: The IC50 against E. coli (A) and Mtb (C) gyrase were determined using the gel-based gyrase inhibition assays. The gyrase mediated DNA cleavage assays (B and D) were performed using pBR322. (A) 229 inhibits E. coli gyrase. Lane 1, rx pAB1. […] Lane 1, rx pAB1. […] 100 µM of CPDs were used. Symbols rx, nk, In, and sc represent relaxed, nicked, linear, and supercoiled DNA, respectively.
Agarose gel-based DNA gyrase inhibition assays were performed in 30 µL of 1 ×gyrase buffer (35 mM Tris-HCl, 24 mM KCl, 4 mM MgCl2, 2 mM DTT, 1.75 mM ATP, 0.1 mg/mL BSA, 6.5% glycerol, pH7.5) containing 400 ng of rx pAB1 at 37° C. 100 ng of DNA gyrase was used to supercoil the rx pAB1 in the presence of different concentrations of a gyrase inhibitor. After 15 minutes of incubation with the inhibitor at 37° C., all reactions were stopped with 1 µL of stop solution (3% SDS and 250 mM EDTA). Samples were analyzed by electrophoresis in 1% w/v agarose gels followed by ethidium bromide staining and photographed under UV light.

[2] = system: NCI panel of 60 cancer cell lines; conditions: up to 1 mM; results of NCI DTP; cited from earlier work
in vitro [3] = conditions: human
Mtb = Mtb whole cell assay (% inhibition, MIC); type: cell-based, Mycobacterium tuberculosis; conditions: for inhibition at 20 µM: Table 5 (same values in Table 6 at 20 µM)
S. aureus (ATCC 14775) = experiment: Minimum inhibitory concentration, broth microdilution; conditions: Staphylococcus aureus
E. coli (ATCC 25922) = experiment: as above; conditions: Escherichia coli
[4] = biological target: human DNA topoisomerase IIα (Homo sapiens (Human), UniProt P11388); experiment: Agarose gel-based inhibition assay against human DNA topoisomerase IIα; type: biochemical
Sequence of human DNA topoisomerase IIα (P11388 whole entry): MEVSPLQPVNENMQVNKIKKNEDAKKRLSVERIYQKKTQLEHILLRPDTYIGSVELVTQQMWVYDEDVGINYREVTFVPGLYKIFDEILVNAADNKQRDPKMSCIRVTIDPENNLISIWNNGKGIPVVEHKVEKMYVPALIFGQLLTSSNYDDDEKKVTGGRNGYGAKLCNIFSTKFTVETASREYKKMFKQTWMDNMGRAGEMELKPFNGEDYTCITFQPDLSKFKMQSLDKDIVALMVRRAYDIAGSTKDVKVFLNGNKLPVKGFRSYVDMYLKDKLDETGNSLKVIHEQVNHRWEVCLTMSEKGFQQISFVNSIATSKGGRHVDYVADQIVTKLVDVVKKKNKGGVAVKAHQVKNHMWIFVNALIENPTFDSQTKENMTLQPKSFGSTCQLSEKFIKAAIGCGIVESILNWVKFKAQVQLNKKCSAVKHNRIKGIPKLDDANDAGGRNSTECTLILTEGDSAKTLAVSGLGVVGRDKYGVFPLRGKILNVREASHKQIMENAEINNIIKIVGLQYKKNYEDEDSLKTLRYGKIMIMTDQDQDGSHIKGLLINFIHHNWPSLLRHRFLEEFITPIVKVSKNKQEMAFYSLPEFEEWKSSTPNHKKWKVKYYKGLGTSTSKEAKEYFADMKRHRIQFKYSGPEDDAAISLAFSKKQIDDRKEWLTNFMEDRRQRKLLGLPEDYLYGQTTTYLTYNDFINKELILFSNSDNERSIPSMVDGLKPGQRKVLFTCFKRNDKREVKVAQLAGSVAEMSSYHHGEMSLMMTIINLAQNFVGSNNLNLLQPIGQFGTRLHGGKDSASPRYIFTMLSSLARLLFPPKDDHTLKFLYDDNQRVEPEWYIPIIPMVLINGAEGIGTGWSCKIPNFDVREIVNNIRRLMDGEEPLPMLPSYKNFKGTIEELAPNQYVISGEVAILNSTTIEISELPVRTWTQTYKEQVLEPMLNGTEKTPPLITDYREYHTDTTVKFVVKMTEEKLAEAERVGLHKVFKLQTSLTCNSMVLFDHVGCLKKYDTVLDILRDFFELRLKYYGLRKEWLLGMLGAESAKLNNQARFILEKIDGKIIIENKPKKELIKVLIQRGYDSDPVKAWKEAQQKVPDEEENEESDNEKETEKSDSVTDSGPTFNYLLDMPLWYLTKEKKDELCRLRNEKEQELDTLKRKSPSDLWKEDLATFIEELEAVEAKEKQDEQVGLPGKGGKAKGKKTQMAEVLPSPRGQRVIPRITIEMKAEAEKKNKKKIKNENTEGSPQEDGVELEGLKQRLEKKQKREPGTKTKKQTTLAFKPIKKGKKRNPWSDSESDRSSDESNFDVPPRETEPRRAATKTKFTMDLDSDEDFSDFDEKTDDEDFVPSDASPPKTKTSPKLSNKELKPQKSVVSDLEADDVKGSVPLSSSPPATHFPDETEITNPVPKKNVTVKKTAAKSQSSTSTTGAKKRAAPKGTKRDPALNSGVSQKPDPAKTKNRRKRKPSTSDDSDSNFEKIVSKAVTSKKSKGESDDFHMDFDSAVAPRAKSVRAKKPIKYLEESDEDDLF

in vitro [5] = conditions: mouse
E. coli DNA gyrase [6] = biological target: T1, E. coli DNA gyrase; experiment: Agarose gel-based DNA gyrase inhibition assay; type: biochemical; conditions: 50 µM of compounds
Protocol: 100 ng of DNA gyrase was used to supercoil the rx pAB1 in the presence of different concentrations of a gyrase inhibitor. […] Samples were analyzed by electrophoresis in 1% w/v agarose gels followed by ethidium bromide staining and photographed under UV light.

MRSA = experiment: Minimum inhibitory concentration, broth microdilution; conditions: Staphylococcus aureus, MRSA
Protocol: (§1) Antibacterial minimum inhibitory concentrations (MICs) were obtained from three independent experiments using broth microdilution methods in 96-well plates according to Clinical and Laboratory Standards Institute guidelines. Cells were culture from singles colonies in MHIIB medium for 24 h at 37° C. in agitation (200 RPM). The cultures were then diluted using the same media to reach an OD600 of 0.1. Then, 50 µL of the diluted cultures were added to the plates holding 50 µL of serially diluted compounds in MHIIB. The plates were incubated at 37° C. for 20 h. The starting inoculum was fixated to 10^5 colony-forming units per ml.

E. coli DNA gyrase [7] = biological target: T1, E. coli DNA gyrase; experiment: biochemical; type: biochemical
J774 = conditions: 200 µM
E. coli DNA gyrase [8] = biological target: T1, E. coli DNA gyrase; experiment: SDFQ HTS primary assay (1536-well, pAB1_FL905); type: biochemical; conditions: LOPAC library, 5 µM
Protocol: SDFQ HTS primary assay using pAB1_FL905 was performed in 2 µL of (1 xDNA gyrase buffer: 20 mM Tris-Acetate pH 7.9, 50 mM KAc, 10 mM MgCl2, 2 mM DTT, 1 mM ATP, 0.1 mg/mL BSA). […] 3) Spun plate at 800 rpm for 30 seconds.

[9] = biological target: E. coli DNA topoisomerase IV (Escherichia coli (strain K12), UniProt P0AFI2+P20083); experiment: E. coli DNA topoisomerase IV relaxation assay (gel-based); type: biochemical
Sequence of E. coli DNA topoisomerase IV (P0AFI2 whole entry, looked up): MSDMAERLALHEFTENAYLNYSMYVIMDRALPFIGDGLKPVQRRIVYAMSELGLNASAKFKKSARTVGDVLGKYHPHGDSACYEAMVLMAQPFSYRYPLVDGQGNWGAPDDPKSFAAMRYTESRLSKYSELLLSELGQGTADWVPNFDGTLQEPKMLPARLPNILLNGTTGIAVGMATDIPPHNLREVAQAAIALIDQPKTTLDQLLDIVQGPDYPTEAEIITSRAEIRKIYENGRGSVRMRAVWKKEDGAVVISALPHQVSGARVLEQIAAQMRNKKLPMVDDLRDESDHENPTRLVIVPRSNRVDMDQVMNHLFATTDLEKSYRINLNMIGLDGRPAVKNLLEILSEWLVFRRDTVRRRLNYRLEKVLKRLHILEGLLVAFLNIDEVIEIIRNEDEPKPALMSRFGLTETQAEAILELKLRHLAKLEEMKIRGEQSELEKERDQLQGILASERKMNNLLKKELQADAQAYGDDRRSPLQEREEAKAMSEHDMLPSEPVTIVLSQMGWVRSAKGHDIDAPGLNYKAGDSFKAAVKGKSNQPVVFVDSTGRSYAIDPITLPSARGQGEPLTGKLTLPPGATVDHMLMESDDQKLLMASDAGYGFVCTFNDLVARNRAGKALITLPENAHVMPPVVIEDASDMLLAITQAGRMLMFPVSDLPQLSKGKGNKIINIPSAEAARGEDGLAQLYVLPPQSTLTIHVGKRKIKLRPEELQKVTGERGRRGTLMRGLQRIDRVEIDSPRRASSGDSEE
Sequence of E. coli DNA topoisomerase IV (P20083 whole entry, looked up): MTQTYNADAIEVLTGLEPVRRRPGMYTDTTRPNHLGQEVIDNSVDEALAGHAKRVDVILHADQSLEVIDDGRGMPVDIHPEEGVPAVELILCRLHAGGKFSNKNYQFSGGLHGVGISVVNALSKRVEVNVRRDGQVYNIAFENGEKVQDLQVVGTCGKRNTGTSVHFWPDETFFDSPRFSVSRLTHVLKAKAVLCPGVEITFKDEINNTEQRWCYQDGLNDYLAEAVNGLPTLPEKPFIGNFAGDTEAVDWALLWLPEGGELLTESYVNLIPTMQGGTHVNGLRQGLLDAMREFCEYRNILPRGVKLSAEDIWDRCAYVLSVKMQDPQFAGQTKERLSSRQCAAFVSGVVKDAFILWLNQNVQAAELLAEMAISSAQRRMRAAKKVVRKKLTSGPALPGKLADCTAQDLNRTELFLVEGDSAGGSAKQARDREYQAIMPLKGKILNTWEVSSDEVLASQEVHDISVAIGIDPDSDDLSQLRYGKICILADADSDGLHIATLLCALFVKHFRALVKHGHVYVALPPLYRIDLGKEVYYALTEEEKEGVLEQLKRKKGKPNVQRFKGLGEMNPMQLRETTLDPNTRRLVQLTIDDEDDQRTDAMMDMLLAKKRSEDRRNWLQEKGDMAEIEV
Protocol: Relaxation assays by E. coli DNA topoisomerase IV and the ATPase assays were performed. […] Lane 1 is supercoiled plasmid pAB1. […] The supercoiled, fluorescently-labeled plasmid pAB1_FL905 was used.

E. coli DNA gyrase [10] = biological target: T1, E. coli DNA gyrase; experiment: SDFQ-based DNA gyrase inhibition assay; type: biochemical; conditions: SDFQ-based, three independent experiments; read-out: IC50 against E. coli DNA gyrase
Protocol: 100 ng of DNA gyrase was used to supercoil the rx pAB1_FL905 in the presence of different concentrations of a gyrase inhibitor. […] The IC50 values were estimated by nonlinear fitting of the following equation: […]
where F is the fluorescence intensity at the x concentration of an min inhibitor. Fmax and Fmin are the maximum and minimum fluorescence of the DNA sample, respectively. P is a slope parameter.

[11] = biological target: human DNA topoisomerase 2α (Homo sapiens (Human), UniProt P11388); experiment: Human DNA topoisomerase 2α-mediated DNA cleavage assay; type: biochemical; conditions: pBR322
Sequence of human DNA topoisomerase 2α (P11388 whole entry): as the sequence (P11388 whole entry) above

E. coli DNA gyrase [12] = biological target: T1, E. coli DNA gyrase; experiment: DNA gyrase mediated DNA cleavage assay; type: biochemical; conditions: pBR322
Protocol: 250 ng of supercoiled pBR322 plasmid were incubated with 50 nM of E. coli DNA gyrase in reactions containing 35 mM Tris-HCl, 24 mM KCl, 4 mM MgCl2, 2 mM DTT, 0.1 mg/mL BSA, 6.5% glycerol, and 1.75 mM ATP, in presence of 200 µM of compounds, at 37° C. for 15 min. Then, 0.2% (w/v) of SDS and 0.1 mg/mL proteinase K were added, and samples were incubated at 37° C. for 1 h. […] Samples were examined by electrophoresis in 1% w/v agarose gel containing 0.5 µg/mL ethidium bromide and photographed under UV light.

B. subtilis (ATCC 6633) = experiment: Minimum inhibitory concentration, broth microdilution; conditions: Bacillus subtilis, ATCC6633, read-out: Minimum Inhibitory Concentration B.subtilis
Protocol: as §1

[13] = Table 5, Mtb gyrase, read-out: IC50 (µM) Mtb
[14] = read-out: Minimum Inhibitory Concentration S.aureus MRSA
[15] = IC50 (µM) EC, Table 5, E. coli gyrase
[16] = ATCC14775, read-out: MIC (µM) SA
[17] = ATCC14775, read-out: Minimum Inhibitory Concentration S.aureus

| SMILES | IC50 (in vitro [3]) [µM] | IC50 [4] [µM] | IC50 (in vitro [5]) [µM] | inhibition of E. coli DNA gyrase activities (E. coli DNA gyrase [6]) | inhibition of Mtb DNA gyrase activities (Mtb DNA gyrase) | IC50 (Mtb DNA gyrase; [13]) [µM] | MIC (MRSA; read-out: MIC (µM) MRSA) [µM] | MIC (MRSA; [14]) [µM] | IC50 (E. coli DNA gyrase [7]; [15]) [µM] | activity against Mtb (Mtb) | inhibition at 20 µM (Mtb; Mycobacterium tuberculosis) [%] | MIC (S. aureus (ATCC 14775); [16]) [µM] | MIC (S. aureus (ATCC 14775); [17]) [µM] | cytotoxicity J774 (J774) | other results |
| --- | --- | --- | --- | --- | --- | --- | --- | --- | --- | --- | --- | --- | --- | --- | --- |
| CCn1cc(C(=O)O)c(=O)c2ccc(C)nc21 [nalidixic acid] |  |  |  |  |  |  |  |  |  |  |  |  |  |  | IC50 (E. coli DNA gyrase [1]): > 30 µM |
| C[n+]1c(-c2ccc(/C=C/C=N/NC(=O)c3ccc(C(=O)N/N=C/c4ccc(-c5cn6ccccc6[n+]5C)cc4)cc3)cc2)cn2ccccc21 [Compound 261] | > 200 |  |  |  |  |  |  |  |  |  |  |  |  |  | MIC (M. abscessus): 22.9 µM; IC50 (Mtb DNA gyrase; Table 10, read-out: IC50 (µM) Mtb gyrase): 9.3 µM; cytotoxicity against the NCI panel of 60 cancer cell lines [2]: no cytotoxicity; MIC (Mtb; Mycobacterium tuberculosis): 109 µM; MIC (S. aureus (ATCC 14775); ATCC14775, read-out: MIC (µM) Sa): > 200 µM; MIC (E. coli (ATCC 25922); ATCC25922, read-out: MIC (µM) Ec, E. coli strain ATCC25922): 50 µM |
| Cc1c(CCC(=O)O)c(=O)oc2c(C)c3occ(-c4ccc(-c5ccccc5)cc4)c3cc12 [Compound 119] | > 200 | 133 | > 200 | completely inhibited | potent Mtb gyrase inhibitors | 16 | 0.8 (≈ 0.351 µg/mL) | 0.78 (≈ 0.342 µg/mL) | 7.7 | most active | 70.4 | 0.8 (≈ 0.351 µg/mL) | 0.78 (≈ 0.342 µg/mL) | no cytotoxicity |  |
| N[C@@H]1[C@H]2CN(c3nc4c(cc3F)c(=O)c(C(=O)O)cn4-c3ccc(F)cc3F)C[C@@H]12 [trovafloxacin] |  |  |  |  |  |  |  |  |  |  |  |  |  |  | inhibition activities against E. coli DNA gyrase (E. coli DNA gyrase [8]): more than 40% |
| Cc1c(CCC(=O)O)c(=O)oc2c(C)c3occ(-c4ccc5ccccc5c4)c3cc12 [Compound 124] | > 200 | 117 | > 200 | completely inhibited | potent Mtb gyrase inhibitors | 3 | 1.6 (≈ 0.66 µg/mL) | 1.56 (≈ 0.643 µg/mL) | 5.5 | most active | 80.4 | 1.6 (≈ 0.66 µg/mL) | 1.56 (≈ 0.643 µg/mL) | no cytotoxicity |  |
| N=C(N)Nc1nc(-c2ccccc2)c2cc(Cl)ccc2n1 [Compound 154, N-(6-chloro-4-phenylquinazolin-2-yl)guanidine] |  | ~50 |  | completely inhibited |  |  |  | 25 (≈ 7.44 µg/mL) |  |  |  |  | 25 (≈ 7.44 µg/mL) |  | inhibition of E. coli DNA topoisomerase IV [9]: inhibits; IC50 (E. coli DNA gyrase [10]): 3.1 ± 0.7 µM; human topoisomerase 2α-mediated DNA nicks and double-stranded breaks [11]: causes the human topoisomerase 2a-mediated DNA nicks and double-stranded breaks; IC50 (E. coli DNA gyrase [7]; IC50 against E. coli DNA gyrase): 7 µM; E. coli DNA gyrase-mediated DNA breaks and nicking (E. coli DNA gyrase [12]): causes the gyrase-mediated DNA double-stranded breaks and single-stranded nicks; MIC (B. subtilis (ATCC 6633)): 25 µM (≈ 7.44 µg/mL); MIC (E. coli (ATCC 25922); ATCC25922, read-out: Minimum Inhibitory Concentration E. coli, Tables 3a-3c): 50 µM (≈ 14.9 µg/mL) |
